Patent US20090169474A1, “METHOD FOR NONINVASNELY AND QUANTITATIVELY MONITORING THERAPEUTIC AND DIAGNOSTIC TRANSGENE EXPRESSION INDUCED BY EX VNO AND IN VNO GENE TARGETING IN ORGANS, TISSUES AND CELLS” (The Regentsf of the University of California, priority 2006, published 2009)

What was measured:
[1] = test system: HSV1-sr39tk reporter gene expression in cardiac allografts; experiment: Micro-PET imaging of [18F]FHBG / [18F]FDG accumulation; assay type: in vivo; conditions: recipient rabbit with gene transfected donor heart in the neck
Method: Micro-PET scan was performed on postoperative days 2, 4, 6, 8, 12, 20, and 28 in the IL-10 gene therapy group and days 2, 4, 6, and 8 in the control group. Recipient rabbits were intravenously injected with 1 mCi of [^18F]FHBG PET reporter probe. After a 1-h rest to allow for tracer uptake and clearance, the rabbits were imaged with a micro-PET-P4 (Primate P4; Concorde Microsystems, Inc., Knoxville, Tenn., USA) for 45 min over the neck and chest. Micro-PET image data were reconstructed by filtered back-projection and were reoriented into short, vertical, and horizontal long axis slices. From regions of interest on the anterolateral wall (short axis cut), derived counts/pixel/min were converted to counts/ml/min using a calibration constant obtained from scanning a cylindrical phantom. The regions-of-interest (ROI) counts/ml/min were converted to counts/g/min (assuming a tissue density of 1 g/ml) and divided by the injected dose to obtain an image ROI-derived [^18F]FHBG percentage injected dose per gram of heart (% ID/g). The total myocardial accumulation of [^18F]FHBG was corrected for background activity in each region of interest, summed for the 12 slices, and expressed as % ID=(total activity in 12 regions of interest (ROI), left ventricle (LV) (MBq)-total activity in 12 ROI BG (MBq))/injected dose (MBq)×100. […]

[2] = test system: wild-type HSV1-tk and HSV1-sr39tk PET reporter genes; experiment: In vivo imaging of PET reporter genes with reporter probes
Excerpt: Two main categories of substrates, uracil nucleoside derivatives labelled with radioactive iodine (e.g., I-labelled 2′fluoro-2′-deoxy-1-β-D-arabinofura-nosyl-5-iodo-uracilc(FIAU)), and acycloguanosine derivatives labelled with radioactive ^18F-fluorine (e.g., 9-[(4-[^18F]-fluoro-3-hydroxymethylbutyl)guanine (FHBG) and 8-[^18F]fluropenciclorivr (FPCV)), have been investigated as reporter probes for imaging HSV1-tk reporter gene expression.

Molecule | localization of probe activity on micro-PET [1] | effectiveness as probe for in vivo imaging, compared with FPCV [2]
Nc1nc2c(ncn2CCC(CO)C[18F])c(=O)[nH]1 (stereo not drawn) [[^18F]FHBG, 9-(4-[^18F]fluoro-3-hydroxymethylbutyl)guanine] | only in targeted donor heart in the neck | more effective probe
2-[^18F]fluoro-2-deoxy-d-glucose [[^18F]FDG] | in the donor heart as well as in the recipient's heart and skeletal muscle of limb and neck | 
